Results as given in PubChem BioAssay AID2060326 (Molecular Pharmacology Branch, DTP, NCI, 2025).

Test system: MDA-MB-468 multi-cell spheroids, viability
Assay: Anticancer human tumor MDA-MB-468 cell line growth inhibition [IpAb];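 also: spheroids exposed to agents for seven days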;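 as to viability, T/C: 100% = DMSO vehicle control viability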
Conditions: for IC50: curve of first compound; for viability, T/C: stronger effect = lower value
Procedure, shortened: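 Combinations with ipatasertib or abemaciclib were tested on tumour spheroids holding HUVEC (25%) and MSC (15%) alongside 60% malignant cells. Top concentration was at or near clinical Cmax (10 microM if undefined), descending in half-log steps.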

[1] = second compound 0.1 µM, first compound 0.0316 µM
[2] = second compound 0.1 µM, first compound 0.1 µM
[3] = second compound 0.1 µM, first compound 0.316 µM
[4] = second compound 0.1 µM, first compound 1 µM
[5] = second compound 0.1 µM, first compound 3.16 µM
[6] = second compound 0.1 µM, first compound 10 µM
[7] = second compound 0.316 µM, first compound 0.0316 µM
[8] = second compound 0.316 µM, first compound 0.1 µM
[9] = second compound 0.316 µM, first compound 0.316 µM
[10] = second compound 0.316 µM, first compound 1 µM
[11] = second compound 0.316 µM, first compound 3.16 µM
[12] = second compound 0.316 µM, first compound 10 µM
[13] = second compound 1 µM, first compound 0.0316 µM
[14] = second compound 1 µM, first compound 0.1 µM
[15] = second compound 1 µM, first compound 0.316 µM
[16] = second compound 1 µM, first compound 1 µM
[17] = second compound 1 µM, first compound 3.16 µM
[18] = second compound 1 µM, first compound 10 µM
[19] = second compound 3.16 µM, first compound 0.0316 µM
[20] = second compound 3.16 µM, first compound 0.1 µM
[21] = second compound 3.16 µM, first compound 0.316 µM
[22] = second compound 3.16 µM, first compound 1 µM
[23] = second compound 3.16 µM, first compound 3.16 µM
[24] = second compound 3.16 µM, first compound 10 µM
[25] = second compound 10 µM, first compound 0.0316 µM
[26] = second compound 10 µM, first compound 0.1 µM
[27] = second compound 10 µM, first compound 0.316 µM
[28] = second compound 10 µM, first compound 1 µM
[29] = second compound 10 µM, first compound 3.16 µM
[30] = second compound 10 µM, first compound 10 µM

CC(=O)c1c(C)c2cnc(Nc3ccc(N4CCNCC4)cn3)nc2n(C2CCCC2)c1=O + CCN1CCN(Cc2ccc(Nc3ncc(F)c(-c4cc(F)c5nc(C)n(C(C)C)c5c4)n3)nc2)CC1
IC50 (second compound 0.01 µM): > 0.3 µM
IC50 (second compound 0.0316 µM): > 0.3 µM
IC50 (second compound 0.1 µM): > 0.3 µM
IC50 (second compound 0.316 µM): > 0.3 µM
IC50 (second compound 1 µM): > 0.3 µM
viability, T/C (second compound 0.01 µM, first compound 0.000949 µM): 99.7%
viability, T/C (second compound 0.01 µM, first compound 0.003 µM): 97.4%
viability, T/C (second compound 0.01 µM, first compound 0.00949 µM): 93.6%
viability, T/C (second compound 0.01 µM, first compound 0.03 µM): 88.4%
viability, T/C (second compound 0.01 µM, first compound 0.0949 µM): 84%
viability, T/C (second compound 0.01 µM, first compound 0.3 µM): 96.5%
viability, T/C (second compound 0.0316 µM, first compound 0.000949 µM): 92.2%
viability, T/C (second compound 0.0316 µM, first compound 0.003 µM): 99.2%
viability, T/C (second compound 0.0316 µM, first compound 0.00949 µM): 85.5%
viability, T/C (second compound 0.0316 µM, first compound 0.03 µM): 89.1%
viability, T/C (second compound 0.0316 µM, first compound 0.0949 µM): 82.6%
viability, T/C (second compound 0.0316 µM, first compound 0.3 µM): 86.6%
viability, T/C (second compound 0.1 µM, first compound 0.000949 µM): 101%
viability, T/C (second compound 0.1 µM, first compound 0.003 µM): 96.1%
viability, T/C (second compound 0.1 µM, first compound 0.00949 µM): 90.8%
viability, T/C (second compound 0.1 µM, first compound 0.03 µM): 92.8%
viability, T/C (second compound 0.1 µM, first compound 0.0949 µM): 85.3%
viability, T/C (second compound 0.1 µM, first compound 0.3 µM): 95.7%
viability, T/C (second compound 0.316 µM, first compound 0.000949 µM): 106%
viability, T/C (second compound 0.316 µM, first compound 0.003 µM): 93.9%
viability, T/C (second compound 0.316 µM, first compound 0.00949 µM): 93.7%
viability, T/C (second compound 0.316 µM, first compound 0.03 µM): 83.7%
viability, T/C (second compound 0.316 µM, first compound 0.0949 µM): 88%
viability, T/C (second compound 0.316 µM, first compound 0.3 µM): 108%
viability, T/C (second compound 1 µM, first compound 0.000949 µM): 74.7%
viability, T/C (second compound 1 µM, first compound 0.003 µM): 75%
viability, T/C (second compound 1 µM, first compound 0.00949 µM): 77.5%
viability, T/C (second compound 1 µM, first compound 0.03 µM): 71.4%
viability, T/C (second compound 1 µM, first compound 0.0949 µM): 83.1%
viability, T/C (second compound 1 µM, first compound 0.3 µM): 74.6%

Cn1nccc1Nc1nccc(-c2ccn(C(CO)c3ccc(Cl)c(F)c3)c(=O)c2)n1 (stereo not given) + CC(C)NCC(C(=O)N1CCN(c2ncnc3c2C(C)CC3O)CC1)c1ccc(Cl)cc1
IC50 (second compound 0.1 µM): 3.29 µM
IC50 (second compound 0.316 µM): 1.35 µM
IC50 (second compound 1 µM): 0.417 µM
IC50 (second compound 3.16 µM): < 0.0316 µM
IC50 (second compound 10 µM): < 0.0316 µM
viability, T/C [1]: 90.7%
viability, T/C [2]: 88.3%
viability, T/C [3]: 85%
viability, T/C [4]: 65.3%
viability, T/C [5]: 57.3%
viability, T/C [6]: 2.08%
viability, T/C [7]: 66%
viability, T/C [8]: 54.9%
viability, T/C [9]: 62%
viability, T/C [10]: 46.3%
viability, T/C [11]: 44.3%
viability, T/C [12]: 0.8%
viability, T/C [13]: 57.9%
viability, T/C [14]: 56%
viability, T/C [15]: 51.3%
viability, T/C [16]: 42%
viability, T/C [17]: 16.4%
viability, T/C [18]: 0.2%
viability, T/C [19]: 38.6%
viability, T/C [20]: 38.9%
viability, T/C [21]: 37%
viability, T/C [22]: 23.4%
viability, T/C [23]: 5.84%
viability, T/C [24]: 0.17%
viability, T/C [25]: 18.8%
viability, T/C [26]: 15.8%
viability, T/C [27]: 19%
viability, T/C [28]: 9.63%
viability, T/C [29]: 1.96%
viability, T/C [30]: 0.26%

Cc1nc(NC(=O)N2CCCC2C(N)=O)sc1-c1ccnc(C(C)(C)C(F)(F)F)c1 (stereo not given) + CCN1CCN(Cc2ccc(Nc3ncc(F)c(-c4cc(F)c5nc(C)n(C(C)C)c5c4)n3)nc2)CC1
IC50 (second compound 0.01 µM): 7.82 µM
IC50 (second compound 0.0316 µM): 5.28 µM
IC50 (second compound 0.1 µM): 4.97 µM
IC50 (second compound 0.316 µM): 3.89 µM
IC50 (second compound 1 µM): 1.29 µM
viability, T/C (second compound 0.01 µM, first compound 0.0316 µM): 108%
viability, T/C (second compound 0.01 µM, first compound 0.1 µM): 90.6%
viability, T/C (second compound 0.01 µM, first compound 0.316 µM): 102%
viability, T/C (second compound 0.01 µM, first compound 1 µM): 79.2%
viability, T/C (second compound 0.01 µM, first compound 3.16 µM): 102%
viability, T/C (second compound 0.01 µM, first compound 10 µM): 37.4%
viability, T/C (second compound 0.0316 µM, first compound 0.0316 µM): 77.8%
viability, T/C (second compound 0.0316 µM, first compound 0.1 µM): 83.4%
viability, T/C (second compound 0.0316 µM, first compound 0.316 µM): 68%
viability, T/C (second compound 0.0316 µM, first compound 1 µM): 86%
viability, T/C (second compound 0.0316 µM, first compound 3.16 µM): 69%
viability, T/C (second compound 0.0316 µM, first compound 10 µM): 24.4%
viability, T/C [1]: 99.8%
viability, T/C [2]: 91.9%
viability, T/C [3]: 98.9%
viability, T/C [4]: 86%
viability, T/C [5]: 67.3%
viability, T/C [6]: 23.7%
viability, T/C [7]: 91%
viability, T/C [8]: 89.7%
viability, T/C [9]: 77.7%
viability, T/C [10]: 79.3%
viability, T/C [11]: 57.2%
viability, T/C [12]: 16.5%
viability, T/C [13]: 57.9%
viability, T/C [14]: 68.1%
viability, T/C [15]: 62.9%
viability, T/C [16]: 55.1%
viability, T/C [17]: 30.6%
viability, T/C [18]: 6.3%

CC1(C)CCC(CN2CCN(c3ccc(C(=O)NS(=O)(=O)c4ccc(NCC5CCOCC5)c([N+](=O)[O-])c4)c(Oc4cnc5[nH]ccc5c4)c3)CC2)=C(c2ccc(Cl)cc2)C1 + CC(C)NCC(C(=O)N1CCN(c2ncnc3c2C(C)CC3O)CC1)c1ccc(Cl)cc1
IC50 (second compound 0.1 µM): 4.76 µM
IC50 (second compound 0.316 µM): 3.03 µM
IC50 (second compound 1 µM): 1.38 µM
IC50 (second compound 3.16 µM): < 0.0316 µM
IC50 (second compound 10 µM): < 0.0316 µM
viability, T/C [1]: 109%
viability, T/C [2]: 89.5%
viability, T/C [3]: 98.3%
viability, T/C [4]: 94.6%
viability, T/C [5]: 71.3%
viability, T/C [6]: 11.3%
viability, T/C [7]: 69.8%
viability, T/C [8]: 72.2%
viability, T/C [9]: 82.4%
viability, T/C [10]: 69.5%
viability, T/C [11]: 49.3%
viability, T/C [12]: 7.93%
viability, T/C [13]: 56.9%
viability, T/C [14]: 63.8%
viability, T/C [15]: 55%
viability, T/C [16]: 56.6%
viability, T/C [17]: 34.1%
viability, T/C [18]: 5.02%
viability, T/C [19]: 34.4%
viability, T/C [20]: 37.7%
viability, T/C [21]: 38.5%
viability, T/C [22]: 36.4%
viability, T/C [23]: 26.1%
viability, T/C [24]: 2.19%
viability, T/C [25]: 17.4%
viability, T/C [26]: 18.9%
viability, T/C [27]: 17.9%
viability, T/C [28]: 19.5%
viability, T/C [29]: 9.97%
viability, T/C [30]: 0.99%
